Laboratory results from paper PMC8512560, “Design, Synthesis, and Antipoliferative Activities of Novel Substituted Imidazole-Thione Linked Benzotriazole Derivatives” (Molecules, 2021).
Several values for one entry are separate records, joined by “and”; a condition that tells them apart may be missing. Identical values can stand only once.

Columns and labels:
HL-60 cells [1] = test: Annexin V/PI apoptotic assay by flow cytometry; format: cell-based, human; conditions: BI9 1 µM, CA-4 concentration not given, control 1.6%
Description: Apoptotic cell death was detected by flow cytometry using Annexin V and propidium iodide (PI). HL-60 Cells were seeded in 6 well plated at density of 1 × 10^5 cells/mL and treated with vehicle (0.1% (v/v) EtOH), positive control (CA-4) or compound BI9 (1 µM) for 48 and 72 h. Cells were then harvested and prepared for flow cytometric analysis. Cells were washed in 1X binding buffer ([…] binding buffer: 0.1M HEPES, pH 7.4; 1.4 M NaCl; 25 mM CaCl2 diluted in dH2O) and incubated in the dark for 30 min on ice in Annexin V-containing binding buffer [1:100]. Cells were then washed once in binding buffer and then re-suspended in PI-containing binding buffer [1:1000]. Samples were analysed immediately using the BD accuri flow cytometer and prism software for analysis the data. Four populations are produced during the assay Annexin V and PI negative (Q4, healthy cells), Annexin V positive and PI negative (Q3, early apoptosis), Annexin V and PI positive (Q2, late apoptosis) and Annexin V negative and PI positive (Q1, necrosis).

[2] = test system: HL-60 human leukemia cancer cell line; test: MTT viability assay, HL-60; format: cell-based; conditions: Homo sapiens, HL-60, 72 h, mean ± SD of three independent experiments, read-out: Antiproliferative Activities IC50, HL-60
Description: (§1) All the human tumour cell lines MCF-7, HL-60, HCT-116, and HUVEC were cultured in Dulbecco’s Modified Eagle’s Medium (DMEM) with 10% fetal bovine serum, 2 mM L-glutamine and 100 µg/mL penicillin/streptomycin. Cells were maintained at 37 °C in 5% CO2 in a humidified incubator. All cells were sub-cultured three times/week by trypsinization using TrypLE Express (1X).
(§2) The Benzotriazole compounds were evaluated for antiproliferative effect using the MTT viability assay of various cancer cell lines (MCF-7, HCT-116 and HL-60) and the normal human umbilical vein endothelial cell line (HUVEC) to calculate the relative IC50 values for each compound. Cells were seeded in triplicate in 96-well plates at a density of 10 × 10^3 cells/mL in a total volume of 200 µL per well. 0.1% of DMSO was used as a vehicle control. After this time, they were treated with 2 µL test compound which had been pre-prepared as stock solutions in ethanol to furnish the concentration range of study, 10 nM to 100 µM, and re-incubated for a further 72 h. The culture medium was then removed, and the cells washed with 100 µL phosphate buffered saline (PBS) and 50 µL MTT added, to reach a final concentration of 1 mg/mL MTT added. Cells were incubated for 2 h in darkness at 37 °C. At this point solubilisation was begun through the addition of […] DMSO and the cells maintained at room temperature in darkness for 20 min to ensure thorough colour diffusion before reading the absorbance. Plates were incubated for 72 h at 37 °C + 5% CO2. The MTT (5 mg/mL in PBS) was added and incubated for another 4 h, and the optical density was detected with a microplate reader at 570 nm. Results were expressed as percentage viability relative to vehicle control (100%). Dose response curves were plotted and IC50 values (concentration of drug resulting in 50% reduction in cell survival) were obtained using the commercial software package Prism (GraphPad Software, Inc., La Jolla, CA, USA). All the experiments were repeated in at least three independent experiments.

HL-60 cells [3] = test: Cell cycle analysis by PI flow cytometry; format: cell-based, human; conditions: 50 nM
Description: HL-60 cells were seeded at a density of 1 × 10^5 cells/well in 6-well plates and treated with CA-4 and compound BI9 (1 µM) for 48 and 72 h. The cells were collected by trypsinization and centrifuged at 800× g for 15 min. Cells were washed twice with ice-cold PBS and fixed in ice-cold 70% ethanol overnight at −20 °C. Fixed cells were centrifuged at 800× g for 15 min and stained with 50 μg/mL of PI, containing 50 μg/mL of DNase-free RNase A, at 37 °C for 30 min. The DNA content of cells (10,000 cells/experimental group) was analysed by flow cytometer at 488 nm using a FACSCalibur flow cytometer (BD Biosciences, San Jose, CA, USA) and all data were recorded and analysed using the CellQuest Software (Becton-Dickinson).

[4] = test system: MCF-7 human breast cancer cell line; test: MTT viability assay, MCF-7; format: cell-based; conditions: Homo sapiens, MCF7, 72 h, mean ± SD of three independent experiments, read-out: Antiproliferative Activities IC50, MCF-7
Description: as §1, §2

[5] = test system: HUVEC human umbilical vein endothelial cell line; test: MTT viability assay, normal HUVEC cells; format: cell-based; conditions: 72 h, mean ± SD of three independent experiments
Description: as §1, §2

[6] = test system: HCT-116 human colon cancer cell line; test: MTT viability assay, HCT-116; format: cell-based; conditions: Homo sapiens, HCT-116, 72 h, mean ± SD of three independent experiments, read-out: Antiproliferative Activities IC50, HCT-116
Description: as §1, §2

[7] = test system: colchicine binding site of tubulin; test: Colchicine site competitive binding assay ([3H]colchicine); conditions: tubulin and colchicine at 1 and 5 µM
Description: The affinity of Benzotriazole compounds to colchicine binding site was determined using a Colchicine Site Competitive Assay kit CytoDYNAMIX Screen15 (Cytoskeleton, Inc., Denver, CO, USA) using the standard protocol of the manufacturer to determine Ki values (μM). Biotin-labelled tubulin ([…]) and the test compounds (positive control colchicine, negative control vinblastine, G-1, fluorescent G-1, or 2-ME) in a 96-well plate (final volume: 100 μL). After incubating for 2 h at 37 °C with gentle shaking, streptavidin-labelled yttrium SPA beads (80 μg in 20 μL reaction buffer, PerkinElmer, Waltham, MA) were added to each well and incubated for 30 min at 4 °C. The plates were then read on a scintillation counter (Packard Instrument, Topcount Microplate Reader) and the percentage of inhibition was calculated.

bovine brain tubulin = test: Tubulin polymerization assay (turbidimetric, kit BK006); format: biochemical; conditions: read-out: Anti-Tubulin Activity IC50 ± SD (inhibition of tubulin polymerization)
Description: The assembly of purified bovine tubulin was monitored using a kit, BK006, purchased from Cytoskeleton Inc., (Denver, CO, USA). The assay was carried out in accordance with the manufacturer’s instructions using the standard assay conditions. Briefly, purified ([…]) in a buffer consisting of 80 mM PIPES (pH 6.9), 0.5 mM EGTA, 2 mM MgCl2, 1 mM GTP and 10% glycerol was incubated at 37 °C in the presence of either vehicle (2% (v/v) ddH2O), CA-4, benzotriazole compounds. Light was scattered proportionally to the concentration of polymerized microtubules in the assay. Therefore, the tubulin assembly was monitored turbidimetrically at 340 nm in a Spectramax 340 PC spectrophotometer (Molecular Devices, Sunnyvale, CA, USA). The concentration that inhibits tubulin polymerization by 50% (IC50) was determined using area under the curve (AUC). The AUC of the untreated controls were considered as 100% polymerization. The IC50 value for each compound was computed using GraphPad Prism Software.

COc1ccc(/C=C\c2cc(OC)c(OC)c(OC)c2)cc1O [CA-4, Combretastatin A-4, reference compound]
Total fraction of early and late apoptotic cells (Annexin V positive) (HL-60 cells [1]; 48 h): 18.7% | Average fraction of Annexin V-staining positive cells (total apoptotic cells) (HL-60 cells [1]; 72 h): 23.7% | IC50 [2]: 770 ± 50 nM | Proportion of HL-60 cells in G2/M phase (HL-60 cells [3]; 48 h): 40.1% | Proportion of HL-60 cells in G2/M phase (HL-60 cells [3]; 72 h): 46.6% | IC50 [4]: 580 ± 20 nM | IC50 [5]: 13600 ± 650 nM | IC50 [6]: 240 ± 20 nM | Colchicine Binding % ± SD (inhibition of [3H]colchicine binding), 1 µM Drug ([7]; 1 µM drug): 64% and 64.23 ± 0.9% | Colchicine Binding % ± SD (inhibition of [3H]colchicine binding), 5 µM Drug ([7]; 5 µM drug): 85% and 85.63 ± 2% | IC50 (bovine brain tubulin): […]
